According to patent US8680126B2, “Fluorinated thiazoles for use in treating cancer” (Universitat de Barcelona, priority 2010, dated 2014):

How the values were obtained:
[1] = tested on: Jurkat cells (T lymphocytes from acute T cell leukemia with mutated TP53); test: Dose-response analysis of apoptosis by flow cytometry in Jurkat cells; format: cell-based; conditions: Homo sapiens, 24 hours, flow cytometry (annexin-V negative cells in respect to untreated cells)
Method: (§1) The human cell lines Jurkat (T lymphocytes from acute T cell leukemia), Ramos (B lymphocytes from Burkitt's lymphoma), TK6 (human lymphoblast cell line) HeLa (epithelial cervical carcinoma cell line), MDA-MB 231 (epithelial breast adenocarcinoma cell line), T98-G (glioblastoma cell line) and Hep3B (hepatocellular carcinoma cell line) were obtained from the European Collection of Cell Cultures.
(§2) Jurkat, Ramos, TK6 and CLL cells were grown in RPMI-1640 medium, and HeLa cells in DMEM medium, both containing 10% heat-inactivated fetal calf serum, 1% glutamine, and 1% penicillin-streptomycin. MDA-MB 231 cells were grown in DMEM/F-12 medium containing additionally 1% pyruvate. Hep3B cells were maintained in MEM medium supplemented with 10% fetal bovine serum. All were maintained at 37° C. in humidified atmosphere containing 5% carbon dioxide.
(§3) 0.25-0.3×10^6 cells were washed in phosphate-buffered saline (PBS) and resuspended in 100 μl of annexin binding buffer and incubated with 1 μl of annexin V-Fluorescein-5-isothiocyanate (FITC) or annexin V-Allophycocyanin (APC). After 20 min of incubation in the dark at room temperature, 100 μl of annexin binding buffer with 5 μl of propidium iodide (PI) (20 μg/ml) was added just before flow cytometric analysis. Data were analyzed using the appropriate software. Cell viability was measured by analysis of phosphatidylserine exposure and PI uptake and it is expressed as the percentage of annexin-V and PI double-negative cells.
(§4) Dose-response analysis was performed using Jurkat mutated-TP53 cancer cells and inactivated p53 cancer cell line HeLa.
(§5) Cell viability was measured by flow cytometry and it is expressed as the percentage of nonapoptotic cells (annexin-V negative) in respect to untreated cells at 24 hours. Therefore, values under 100% are indicative of apoptosis or loss of cell viability.
Jurkat cells (which are T lymphocytes from acute T cell leukemia with mutated TP53) were incubated with a range of doses from 1 to 40 μM of each compound for 24 hours.
(§6) The IC50 at 24 hours was calculated for each compound using flow cytometry analysis. The results are expressed in Table 3 as the percentage of nonapoptotic cells (annexin-V negative) in respect to untreated cells at 24 hours.
Jurkat cells (which are T lymphocytes from acute T cell leukemia with mutated TP53) were incubated with a range of doses from 5 to 40 μM of each compound for 24 hours.

[2] = tested on: HeLa cells (epithelial cervical carcinoma cell line with inactivated p53); test: Dose-response analysis of apoptosis by flow cytometry in HeLa cells; format: cell-based; conditions: Homo sapiens, 24 hours, flow cytometry (annexin-V negative cells in respect to untreated cells)
Method: as §1, §2, §3, §4, §5
HeLa cells (epithelial cervical carcinoma cell line with inactivated p53) were incubated with a range of doses from 2 to 40 μM of each compound for 24 hours.
as §6
HeLa cells (epithelial cervical carcinoma cell line with inactivated p53) were incubated with a range of doses from 5 to 40 μM of each compound for 24 hours.

[3] = tested on: T cells (CLL cells from patients with wild-type TP53); test: Dose-response analysis by flow cytometry in T cells of CLL patients, wild-type TP53; format: cell-based, human; conditions: doses from 5 to 40 μM, 24 hours
Method: Viability was measured by flow cytometry and it is expressed as the percentage of nonapoptotic cells (annexin-V FITC negative). A representative patient is shown.
as §2
(§7) Peripheral blood lymphocytes from CLL patients were obtained from the Haematology Unit at the IDIBELL-Hospital de Bellvitge, L'Hospitalet de Llobregat, Barcelona, Spain. […] The purity of CLL samples was evaluated with allophycocyanin (APC)-conjugated anti-CD3 and phycoerythrin (PE)-conjugated anti-CD19 (Becton Dickinson, Frankiln Lakes, N.J., USA). Data were analysed by flow cytometry and the analysis was performed with the appropriate software.
(§8) 0.25-0.3×10^6 cells were washed in phosphate-buffered saline (PBS) and resuspended in 100 μl of annexin binding buffer and incubated with 1 μl of annexin V-Fluorescein-5-isothiocyanate (FITC) or annexin V-Allophycocyanin (APC). […] Data were analyzed using the appropriate software. […]

[4] = tested on: Jurkat cell line (T lymphocytes from acute T cell leukemia, mutated TP53); test: Screening assay in Jurkat cells by measuring cell viability (flow cytometry), single dose; format: cell-based, human; design: key: “+” means low activity; “++” means good activity; “+++” means very good activity; “−” means no activity; conditions: single dose of 40 μM, 24 hour-incubation
Method: as §1, §2, §3
A screening of the effect of compounds Ia-If was performed in Jurkat cell line (T lymphocytes form acute T cell leukemia) at a single dose of 40 μM for 24 hour-incubation.
Jurkat cells were selected among other leukemic tumor cell lines because they have the protein TP53 mutated.
Every compound mentioned above was dissolved in the minimum amount of DMSO necessary to be dissolved. Cell viability was measured by flow cytometry analysis. […] Thus, all the observed effects on cell viability are due to the compounds' activity.
The results are summarized in Table 2: “+” means low activity; “++” means good activity and “+++” means very good activity; “−” means no activity.

[5] = tested on: B-CLL cells from patients with wild-type TP53; test: Dose-response analysis of apoptosis by flow cytometry in B-CLL cells, wild-type TP53; format: cell-based, human; conditions: 24 hours; for induction of apoptosis (dose-response): B-CLL cells wild-type TP53, doses from 1 to 20 μM
Method: as §2
(§9) Peripheral blood lymphocytes from CLL patients were obtained from the Haematology Unit at the IDIBELL-Hospital de Bellvitge, L'Hospitalet de Llobregat, Barcelona, Spain. CLL was diagnosed according to standard clinical and laboratory criteria. Written informed consent was obtained from all patients, in accordance with the Hospital de Bellvitge's Ethical Committee. Mononuclear cells from heparinized peripheral blood samples were isolated by centrifugation on a Ficoll-Hypaque (Seromed, Berlin, Germany) gradient. The purity of CLL samples was evaluated with allophycocyanin (APC)-conjugated anti-CD3 and phycoerythrin (PE)-conjugated anti-CD19 (Becton Dickinson, Frankiln Lakes, N.J., USA). Data were analysed by flow cytometry and the analysis was performed with the appropriate software.
as §3
B-CLL cells from patients with wild-type TP53 were incubated with a range of doses from 1 to 20 μM of compounds Ia and Id for 24 hours. […]

[6] = tested on: B-CLL cells from patients with mutated TP53; test: Dose-response analysis of apoptosis by flow cytometry in B-CLL cells, mutated TP53; format: cell-based, human; conditions: B-CLL cells mutated TP53, doses from 1 to 20 μM, 24 hours
Method: as §2
as §9, with “Mononuclear cells from heparinized peripheral blood samples were isolated by centrifugation on a Ficoll-Hypaque (Seromed, Berlin, Germany) gradient.” left out
as §8

B-CLL cells = test: IC50 by flow cytometry in primary B-CLL cells; format: cell-based; conditions: Homo sapiens, 24 hours
Method: as §2
as §7, with “Spain. CLL was diagnosed according to standard clinical and laboratory criteria.” for “Spain.”
as §8
The IC50 of compounds Ia and Id was calculated at 24 hours by flow cytometry analysis, except for Hep3B where crystal violet assay was used. […]

[7] = tested on: Hep3B cells (hepatocellular carcinoma cell line with deleted TP53); test: Cell viability by crystal violet assay in Hep3B cells; format: cell-based, human; conditions: 24 hours; for IC50: Homo sapiens, crystal violet assay; for loss of cell viability (dose-response): doses from 2 to 40 μM, crystal violet
Method: as §1, §2
This method allows quantifying the amount of cells that survive after a toxic process, and it consists on cell staining with a colorant, crystal violet. This method is only useful when working with adherent cells that detached after undergoing a toxic process.
After the cells were incubated, in 12 or 24-well plates, with the different stimuli or inhibitors, the cell media was removed, and cells were washed twice with PBS. Then, a solution of Crystal violet at 0.2% (w/v) in 2% ethanol was added during 30 minutes. Following this, the staining solution was removed, and the wells were washed several times with PBS or distilled water until the excess staining that was not incorporated into the cells was eliminated. The plate was air-dried, and the stained cells were lysed in 10% SDS. By spectrophotometric analysis, the absorbance was measured at 595 nm.
The results were then calculated as the percentage of viable cells relative to control cells (cells incubated in the absence of treatment) at the indicated times.
Hep3B cells (hepatocellular carcinoma cell line with deleted TP53) were incubated with a range of doses from 2 to 40 μM of compounds Ia and Id for 24 hours.
(§10) The IC50 of compounds Ia and Id was calculated at 24 hours by flow cytometry analysis, except for Hep3B where crystal violet assay was used. The results are expressed in Table 4 as the percentage of viable cells in respect to untreated cells at 24 hours.

[8] = tested on: Ramos cells (B lymphocytes from Burkitt's lymphoma with mutated TP53); test: Dose-response analysis of apoptosis by flow cytometry in Ramos cells; format: cell-based, human; conditions: 24 hours; for IC50: Homo sapiens, flow cytometry; for induction of apoptosis (dose-response): doses from 2 to 40 μM
Method: as §1, §2, §3
Ramos cells (B lymphocytes from Burkitt's lymphoma with mutated TP53) were incubated with a range of doses from 2 to 40 μM of compounds Ia and Id for 24 hours.
as §10

[9] = tested on: TK6 cells (human lymphoblast cell line with wild-type TP53); test: Dose-response analysis of apoptosis by flow cytometry in TK6 cells; format: cell-based; conditions: 24 hours; for IC50: Homo sapiens, TK6, flow cytometry; for induction of apoptosis (dose-response): TK6, doses from 2 to 40 μM
Method: as §1, §2, §3
TK6 cells (human lymphoblast cell line with wild-type TP53) were incubated with a range of doses from 2 to 40 μM of compounds Ia and Id for 24 hours.
as §10

[10] = tested on: MDA-MB-231 cells (epithelial breast adenocarcinoma cell line with mutated TP53); test: Dose-response analysis of apoptosis by flow cytometry in MDA-MB-231 cells; format: cell-based, human; conditions: 24 hours; for IC50: Homo sapiens, MDA-MB-231, flow cytometry; for induction of apoptosis (dose-response): MDA-MB-231, doses from 2 to 60 μM
Method: as §1, §2, §3
MDA-MB-231 cells (epithelial breast adenocarcinoma cell line with mutated TP53) were incubated with a range of doses from 2 to 60 μM of compounds Ia and Id for 24 hours.
as §10

[11] = tested on: T98-G cells (glioblastoma cell line with mutated TP53); test: Dose-response analysis of apoptosis by flow cytometry in T98-G cells; format: cell-based, human; conditions: 24 hours; for IC50: Homo sapiens, T98G, flow cytometry; for induction of apoptosis (dose-response): T98-G, doses from 2 to 60 μM
Method: as §1, §3
T98-G cells (glioblastoma cell line with mutated TP53) were incubated with a range of doses from 2 to 60 μM of compounds Ia and Id for 24 hours.
as §10

Row | IC50 [1] [µM] | IC50 [2] [µM] | IC50 (B-CLL cells) [µM] | IC50 [7] [µM] | IC50 [8] [µM] | IC50 [9] [µM] | IC50 [10] [µM] | IC50 [11] [µM] | SMILES | sensitivity of T cells compared with B cells [3] | Biological activity [4] | induction of apoptosis (dose-response) in B cells ([5]; CLL cells wild-type TP53, B cells, doses from 5 to 40 μM) | induction of apoptosis (dose-response) [6] | loss of cell viability (dose-response) [7] | induction of apoptosis (dose-response) [8] | induction of apoptosis (dose-response) [9] | induction of apoptosis (dose-response) [10] | induction of apoptosis (dose-response) [11] | induction of apoptosis (dose-response) [5]
1 | 8 | 10 |  |  |  |  |  |  | FC1(F)N=C(c2ccccc2)SC1(F)c1ccccc1 (centres unmarked) [Ic, 4,4,5-trifluoro-2,5-diphenyl-4,5-dihydrothiazole] | less sensitive | ++ | induced apoptosis in a dose-dependent manner |  |  |  |  |  |  | 
2 | 8 | 17 |  |  |  |  |  |  | CCOC(=O)c1ccc(C2=NC(F)(F)C(F)(c3ccc(C)cc3)S2)cc1 (centres unmarked) [If, ethyl 4-(4,4,5-trifluoro-5-(p-tolyl)-4,5-dihydrothiazol-2-yl)benzoate] |  | ++ |  |  |  |  |  |  |  | 
3 | 3 | 8 |  |  |  |  |  |  | FC1(F)N=C(c2ncc(-c3ccccc3)s2)SC1(F)c1ccccc1 (centres unmarked) [Ib, 5-phenyl-2-(4,4,5-trifluoro-5-phenyl-4,5-dihydrothiazol-2-yl)thiazole] |  | +++ |  |  |  |  |  |  |  | 
4 | 3.5 | 1.75 | 5 | 5 | 3.5 | 2.5 | 4 | 7.5 | FC1(F)N=C(c2ccc(Cl)cc2)SC1(F)c1ccc(Cl)cc1 (centres unmarked) [Id, 4,4,5-trifluoro-2,5-bis(4-chlorophenyl)-4,5-dihydrothiazole] |  | +++ |  | induced apoptosis in a dose-dependent manner | induced a loss on cell viability in a dose-dependent manner | induced apoptosis in a dose-dependent manner | induced apoptosis in a dose-dependent manner | induced apoptosis in a dose-dependent manner | induced apoptosis in a dose-dependent manner | induced apoptosis in a dose-dependent manner
5 | 4 | 20 | 4 | 14 | 4.5 | 8 | 16 | 50 | Fc1nc(C2=NC(F)(F)C(F)(c3ccccc3)S2)sc1-c1ccccc1 (centres unmarked) [Ia, 4-fluoro-5-phenyl-2-(4,4,5-trifluoro-5-phenyl-4,5-dihydrothiazol-2-yl)thiazole] |  | +++ |  | induced apoptosis in a dose-dependent manner | induced a loss on cell viability in a dose-dependent manner | induced apoptosis in a dose-dependent manner | induced apoptosis in a dose-dependent manner | induced apoptosis in a dose-dependent manner | induced apoptosis in a dose-dependent manner | induced apoptosis in a dose-dependent manner
6 |  |  |  |  |  |  |  |  | Clc1ccc(-c2cnc(-c3ccc(Cl)cc3)s2)cc1 [comparative Ad, 2,5-bis(4-chlorophenyl)thiazole, reference compound] |  | − |  |  |  |  |  |  |  | 
7 | 20 | 3.5 |  |  |  |  |  |  | FC1(F)N=C(c2ccc(-c3ccccc3)cc2)SC1(F)c1ccccc1 (centres unmarked) [Ie, 4,4,5-trifluoro-2-(biphenyl-4-yl)-5-phenyl-4,5-dihydrothiazole] |  | + |  |  |  |  |  |  |  | 
